From US20240261276A1, “NITROXOLINE FOR USE IN THE TREATMENT OF CUTANEOUS NEUROFIBROMA” (HEALX LTD, priority 2021, published 2024)

What was measured:
[1] = tested on: Tom+ NF1−/− cells; assay: Proliferative activity (CellTrace, cytometry) in floating sphere culture, mutant cells; format: cell-based, mouse; conditions: for Ratio MIFmean (proliferation): NF1−/− cells, normalised to DMSO
Procedure: (§1) This study uses a Nf1-KO mouse strain(Prss56Cre/+, R26tdTom/+, NF1fl/fl) developing cutaneous neurofibromas (cNFs) that faithfully recapitulates human disease (Radomska et a., 2019). In this model, simultaneous bi-allelic loss of Nf1 and expression of Tomato fluorescent reporters were targeted into glial-stem like cells at the origin of cNFs. The assay was performed ex vivo using non-adherent cells in which Tomato expressing Nf1−/− and Nf1+/− stem-like cells from skin can be amplified, and their properties further characterized. […] In this system, Nf1−/− cells express high levels of p-ERK (as expected due to the permanent activation of the RAS pathway), proliferate much faster compared to controls and preserve the capacity to reform spheres after dissociation and re-plating.
(§2) This in vitro culture system uses Tomato (Tom)+ stem-like glial cells at the origin of cNFs that can be amplified and propagated for the long periods. Briefly, skin from young mutant (NF1−/−) and control (NF1+/−) mice was dissected, dissociated and cell suspension incubated in the non-adherent condition with the presence of two mitogens, FGF and EGF. In such conditions only stem-like cells survive, proliferate and form compact multicellular floating structures called neurospheres. Since, in addition to the Tom+ glial stem-like cells, skin contains various other types of stem cells (Tom−), the neurospheres are composed of the intermingled Tom+ and Tom− cells. While in the mutant condition, neurospheres contain Tom+, Nf1−/− and Tom−, Nf1+/+ cells, in the Nf1+/− control condition neurospheres are composed of Tom+, Nf1+/− and Tom−, Nf1+/+ cells. In this study we have analysed the drug effect in Tom+ from NF1−/− and NfF1+/− mice.
(§3) In the present study, floating sphere culture of Nf1+/−(Prss56Cre, R26Tom, Nf1flox/+) and Nf1−/− (Prss56Cre, R26Tom, Nf1flox/flox) glial cells isolated from newborn mouse skin were used. Then they are plated and treated and analysed independently. With this intent, Nf1+/− and Nf1−/− spheres were amplified until passage 3 (1 passage corresponds to 7 days of culture). At the end of PO (10 days), cells were split into 4 identical batches (clones 1-4), and were amplified to P3 (FIG. 1).
(§4) At the end of P3, spheres from each clone were dissociated and cells transferred into two 12 well plates. 6 different concentrations (100 μm, 33 μm, 10 μm, 3 μm, 1 μm and 0 μm) of drug were added and cells were incubated for 72 h. An additional 12 well plate containing cells with DMSO (vehicle used for the drug resuspension) was used as a reference for the normalization of results. After 72 h analyses was performed the on the non-fixed cells: proliferative and cell death assay.
(§5) For the analysis of proliferative activity, a cell tracker lipophilic dye (CellTrace Proliferation Kit, Thermo Fishers) was used. The cell tacker was added at the same time as the drugs. Cells were incubated for 72 h and proliferative activity was measured by cytometry analysis using LSR Fortessa X20 (BD Biosciences). This method measures a mean fluorescence intensity (MIF) for each condition. The condition with DMSO was used as a reference.

[2] = tested on: Tom+ NF1+/− cells; assay: Proliferative activity (CellTrace, cytometry) in floating sphere culture, control cells; format: cell-based, mouse
Procedure: This study uses a Nf1-KO mouse strain(Prss56Cre/+, R26tdTom/+, NF1fl/fl) developing cutaneous neurofibromas (cNFs) that faithfully recapitulates human disease (Radomska et a., 2019). In this model, simultaneous bi-allelic loss of Nf1 and expression of Tomato fluorescent reporters were targeted into glial-stem like cells at the origin of cNFs. The assay was performed ex vivo using non-adherent cells in which Tomato expressing Nf1−/− and Nf1+/− stem-like cells from skin can be amplified, and their properties further characterized. […]
This in vitro culture system uses Tomato (Tom)+ stem-like glial cells at the origin of cNFs that can be amplified and propagated for the long periods. […] In this study we have analysed the drug effect in Tom+ from NF1−/− and NfF1+/− mice.
In the present study, floating sphere culture of Nf1+/−(Prss56Cre, R26Tom, Nf1flox/+) and Nf1−/− (Prss56Cre, R26Tom, Nf1flox/flox) glial cells isolated from newborn mouse skin were used. Then they are plated and treated and analysed independently. […]
as §5, with “The cell tacker was added at the same time as the drugs.” left out, “The condition with DMSO was used as a reference.” left out

[3] = tested on: Tom+ NF1−/− cells; assay: Cell death assay (DAPI, cytometry) in floating sphere culture, mutant cells; format: cell-based, mouse; conditions: for Ratio dead cells mean / Cell death of NF1−/− cells at highest concentration: 72 h; for Ratio dead cells mean: NF1−/− cells; for Cell death of NF1−/− cells at highest concentration: 100 μM, excluded from analysis
Procedure: as §1, §2, §3, §4
(§6) At 72 h of culture, cells were labelled for quantification of cell death using DAPI (4′,6-diamidino-2-phenylindole). Labelled cells were analyzed by cytometry with LSR Fortessa X20 (BD Biosciences).

[4] = tested on: Tom+ NF1+/− cells; assay: Cell death assay (DAPI, cytometry) in floating sphere culture, control cells; format: cell-based, mouse; conditions: for Cell death of NF1+/− cells at highest concentration: 100 μM, excluded from analysis
Procedure: as §1, §2, §3, §4, §6

[5] = tested on: cNF tumour cells (Tom+) in the skin of Nf1-KO mice; assay: In vivo drug testing in Nf1-KO mice with established cNFs; parameters: species or system mouse; conditions: one month
Source text: This study uses the same mouse model that was used for in vitro testing, the Prss56Cre/+, R26tdTom/+, NF1f/l mouse (Radomska et a., 2019). This study is a standard experimental design in the field with endpoints being terminal and not longitudinal throughout study.
Prss56Cre/+, R26tdTom/+, NF19/fl herein referred to as Nf1-KO mice develop cNFs after one year of age. However, cNF development occurs at an earlier age after skin injury induced by mice fighting, which is normal mouse behaviour. In this experiment, at least five six-week old Nf1-KO male mice were placed in a cage together, once the mice had sustained a level of skin injury via fighting they were removed from the cage and monitored. At approximately three months of age the mice that had sustained fighting injuries developed several cNFs. As a fluorescent reporter gene is turned on in cells that have Nf1 deleted, cNF development could be monitored via fluorescent imaging of the skin using an epifluorescent microscope (Leica MZ75). After 1-2 months mice that had established, mature cNFs were then enrolled into a drug treatment study. […]
Schwann cells that are Nf1-null also express the fluorescent reporter tomato (Tom+). cNFs are derived from Nf1-null SCs which are Tom+, therefore fluorescence can be used to identify tumours. […]

[6] = incubation with Selumetinib, concentration not given

Row | SMILES | Effect on proliferative activity of Nf1−/− (mutant) cells [1, 6] | Effect on proliferative activity of Nf1+/− cells [2, 6] | Effect on death of Nf1−/− (mutant) cells [3, 6] | Effect on death of Nf1+/− cells [4, 6] | Ratio MIFmean (proliferation) ([1]; 1 μM, 72 h) | Ratio MIFmean (proliferation) ([1]; 3 μM, 72 h) | Ratio MIFmean (proliferation) ([1]; 10 μM, 72 h) | Effect on proliferative activity of NF1−/− cells ([1]; 33 μM to 1 μM, 72 h, except clone 3) | Ratio MIFmean (proliferation) ([1]; 33 μM, 72 h) | Effect on proliferation of NF1+/− cells ([2]; 33 μM to 1 μM, 72 h) | Ratio dead cells mean ([3]; 10 μM) | Ratio dead cells mean ([3]; 33 μM) | Cell death of NF1−/− cells at highest concentration [3] | Cell death of NF1−/− cells at highest concentration ([3]; listed as nitroxoline) | Effect on cell death of NF1+/− cells ([4]; 33 μM, 72 h) | Cell death of NF1+/− cells at highest concentration ([4]; 72 h) | Cell death of NF1+/− cells at highest concentration ([4]; 72 h, listed as nitroxoline) | Effect on cell death of NF1+/− cells (control conditions) ([4]; lower concentrations (10 μM and below), 72 h) | Overall abundance of cNF tumour cells in the skin ([5]; 120 mg/kg once daily) | Tumour size versus vehicle treated mice (fluorescent imaging of Tom+ cells) ([5]; 120 mg/kg oral gavage once a day (5 days on, 2 days off))
1 | Cn1cnc2c(F)c(Nc3ccc(Br)cc3Cl)c(C(=O)NOCCO)cc21 [Selumetinib, 6-(4-bromo-2-chloroanilino)-7-fluoro-N-(2-hydroxyethoxy)-3-methylbenzimidazole-5-carboxamide] | decreases proliferative activity | without affecting Nf1+/− cells | promotes death of mutant | without affecting Nf1+/− cells |  |  |  |  |  |  |  |  |  |  |  |  |  |  |  | 
2 | O=[N+]([O-])c1ccc(O)c2ncccc12 [Nitroxoline, 5-nitroquinolin-8-ol] |  |  |  |  | 0,7+/−0,26 | 0,60+/−0,22 | 0,5+/−0,18 | reduced proliferative activity | 0,39+/−0,11 | not affected | 2,04+/−0,63 | 8,86+/−0,66 | massive cell death | massive nonspecific death | without affecting NF1+/− cells | massive cell death | massive nonspecific death | without affecting control conditions | reduces the overall abundance of cNF tumour cells | smaller
